Values joined by “and” are separate entries in the source; they are usually repeats but may differ in a detail not shown here. Equal values may be shown once.
Tests used:
digoxin antibody [1] = assay: Competitive radioimmunoassay with I^125 digoxin tyramine analog, polyethylene glycol separation: percent bound (Table I); type: binding, rabbits; details: for Percent Bound: single tube
Text: Described is a competitive radioimmunoassay in which non-radioactive digoxin in a serum sample competes with a constant amount of I^125 digoxin tyramine analog for binding cites on a limited amount of digoxin antibody. The percentage or portion of the radioactivity labeled digoxin which is bound to the antibody is inversely proportional to the concentration of digoxin in the serum sample. The antibody bound digoxin, both radioactive and non-radioactive is separated from unbound digoxin and the radioactivity of the complex is measured with a well-type gamma scintillation counter. The concentration of digoxin in the serum is determined by comparison with standards containing measured amounts of unlabeled digoxin. The use of I^125 digoxin tyramine analog simplifies the procedure, obviating the need for liquid scintillation counting fluid which must be used with ^3 H-digoxin.
In the radioimmunoassay of the present invention, the use of polyethylene glycol is preferred to separate the bound, labeled digoxin tyramine analog from the free digoxin although ethanol or ammonium sulfate can be used. After incubation of the antigen and antibody, a predetermined amount of polyethylene glycol is added and the mixture is agitated. Subsequently, the antibody-bound digoxin is precipitated and separated by centrifugation. The radioactivity remaining in the precipitate is measured to determine the amount of I^125 digoxin tyramine analog which is bound to the antibody. This amount will be inversely proportional with the quantity of nonlabeled antigen present in the serum sample.
The radioimmunoassay of the present invention measures digoxin in the serum sample. The digoxin in a serum sample competes with a constant amount of a radioactively labeled digoxin tyramine analog for binding cites on a limited amount of digoxin antibody. The digoxin tyramine analog comprises 3-0-(4-Hydroxyphenethylcarbamoyl) digoxigenin prepared as hereinafter described. The digoxin tyramine analog is labeled with a radioactive isotope, employing conventional procedures. Iodine-I^125 is preferred as the labeling agent because of its advantageous half life but other radionuclides such as iodine^131, phosphorus^32 and tritium can also be used to radioactively label the reagent. The use of this tracer simplifies the procedure, obviating the need for liquid scintillation counting fluid which must be used with prior tracers such as ^3 H-digoxin.
1. I^125 -digoxin tyramine analog solution in an alcohol-phosphate saline buffer and having a radioactivity level of approximately 1 microcurie per vial.
2. Digoxin standards for preparation of a standard curve and comprising five vials containing 0.0, 0.5, 1.0, 2.0 and 4.0 nanograms per milliliter digoxin in normal human serum. 0.2% sodium azide is used as a preservative.
3. Digoxin antiserum obtained from rabbits in phosphate-saline buffer containing 0.1% […] serum albumin. 0.2% sodium azide is used as a preservative.
4. Polyethylene glycol, 18% solution in 0.09M barbital buffer.
The test procedure is conducted as follows.
b. Tubes 3 through 12 containing known amounts of digoxin are used to prepare the standard curve. Tubes 3 and 4, 0.0 nanograms per milliliter digoxin. Tubes 5 and 6, 0.5 nanograms per milliliter digoxin. Tubes 7 and 8, 1.0 nanograms per milliliter digoxin. Tubes 9 and 10, 2.0 nanograms per milliliter digoxin. Tubes 11 and 12, 4.0 nanograms per milliliter digoxin.
(§1) The tubes are shaken to mix the reagents therein.
The points are connected with straight lines to construct the curve.

digoxin antibody [2] = assay: Reproducibility of percent bound, two technicians (Table II); type: binding, rabbits
Procedure: as §1
Table II illustrates the accuracy, precision and reproducibilty of the method of the present invention.
Replicates of 2 Panel Samples were assayed by two technicians in the
laboratory. Fifteen replicate samples were used.

[3] = usually; background statement; cited from earlier work
[4] = digoxin level; suggested by H. M. Part et al., J. of NUCL. Med. 1973; cited from earlier work

## C[C@]12CC[C@H](OC(=O)NCCc3ccc(O)c([125I])c3)C[C@H]1CC[C@@H]1[C@@H]2C[C@@H](O)[C@]2(C)[C@@H](C3=CC(=O)OC3)CC[C@]12O [I^125 digoxin tyramine analog]
Digoxin antibody [1]; digoxin standard 0.0 ng/ml, mean of duplicate tubes 3, 4
  Average % Bound: 59.7%
Digoxin antibody [1]; digoxin standard 0.0 ng/ml
  Percent Bound: 59.2% and 60.2%
Digoxin antibody [1]; digoxin standard 0.5 ng/ml, mean of duplicate tubes 5, 6
  Average % Bound: 52.9%
Digoxin antibody [1]; digoxin standard 0.5 ng/ml
  Percent Bound: 53.8% and 52.1%
Digoxin antibody [1]; digoxin standard 1.0 ng/ml, mean of duplicate tubes 7, 8
  Average % Bound: 41.5%
Digoxin antibody [1]; digoxin standard 1.0 ng/ml
  Percent Bound: 41.5%
Digoxin antibody [1]; digoxin standard 2.0 ng/ml, mean of duplicate tubes 9, 10
  Average % Bound: 22.9%
Digoxin antibody [1]; digoxin standard 2.0 ng/ml
  Percent Bound: 22.5% and 23.4%
Digoxin antibody [1]; digoxin standard 4.0 ng/ml, mean of duplicate tubes 11, 12
  Average % Bound: 12.9%
Digoxin antibody [1]; digoxin standard 4.0 ng/ml
  Percent Bound: 12.8% and 12.9%
Digoxin antibody [1]; unknown serum sample No. 14, mean of duplicates
  Average % Bound: 17.7%
Digoxin antibody [1]; unknown serum sample No. 14
  Percent Bound: 17.5% and 17.9%
Digoxin antibody [1]; unknown serum sample No. 15, mean of duplicates
  Average % Bound: 64.1%
Digoxin antibody [1]; unknown serum sample No. 15
  Percent Bound: 63.3% and 65.0%
Digoxin antibody [1]; unknown serum sample No. 16, mean of duplicates
  Average % Bound: 25.3%
Digoxin antibody [1]; unknown serum sample No. 16
  Percent Bound: 25.1% and 25.5%
Digoxin antibody [1]; unknown serum sample No. 17, mean of duplicates
  Average % Bound: 49.6%
Digoxin antibody [1]; unknown serum sample No. 17
  Percent Bound: 50.8% and 48.5%
Digoxin antibody [1]; unknown serum sample No. 18, mean of duplicates
  Average % Bound: 24.4%
Digoxin antibody [1]; unknown serum sample No. 18
  Percent Bound: 24.5% and 24.3%
Digoxin antibody [2]; Panel Sample 1, Technician I, fifteen replicates
  % Bound: 44.1%
Digoxin antibody [2]; Panel Sample 1, Technician II, fifteen replicates
  % Bound: 43.6%
Digoxin antibody [2]; Panel Sample 2, Technician I, only 14 replicates
  % Bound: 21.5%
Digoxin antibody [2]; Panel Sample 2, Technician II, fifteen replicates
  % Bound: 20.1%

## C[C@H]1O[C@@H](O[C@H]2[C@@H](O)C[C@H](O[C@H]3[C@@H](O)C[C@H](O[C@H]4CC[C@@]5(C)[C@H](CC[C@@H]6[C@@H]5C[C@@H](O)[C@]5(C)[C@@H](C7=CC(=O)OC7)CC[C@]65O)C4)O[C@@H]3C)O[C@@H]2C)C[C@H](O)[C@@H]1O [digoxin]
[3]
  amounts of digoxin in serum: less than five
[4]
  approximate toxic threshold: ~2 ng/mL

Source: patent US3981982A, “Radioimmunoassay for determining the digoxin content of a sample” (Abbott Laboratories, priority 1974, dated 1976)
